# Assay results as given in PMC6826779, “Bis-allylic Deuterated DHA Alleviates Oxidative Stress in Retinal Epithelial Cells” (Antioxidants, 2019).
# Tests used:
# [1] = target: T1, 15-sLOX (Glycine max, UniProt P08170); assay: LC-MS/MS of 15s-LOX oxidized samples (product profile); type: biochemical, Glycine max (soybean); conditions: 0.1 mM substrate, 30 min reaction, room temperature
# T1 sequence (P08170 1-839): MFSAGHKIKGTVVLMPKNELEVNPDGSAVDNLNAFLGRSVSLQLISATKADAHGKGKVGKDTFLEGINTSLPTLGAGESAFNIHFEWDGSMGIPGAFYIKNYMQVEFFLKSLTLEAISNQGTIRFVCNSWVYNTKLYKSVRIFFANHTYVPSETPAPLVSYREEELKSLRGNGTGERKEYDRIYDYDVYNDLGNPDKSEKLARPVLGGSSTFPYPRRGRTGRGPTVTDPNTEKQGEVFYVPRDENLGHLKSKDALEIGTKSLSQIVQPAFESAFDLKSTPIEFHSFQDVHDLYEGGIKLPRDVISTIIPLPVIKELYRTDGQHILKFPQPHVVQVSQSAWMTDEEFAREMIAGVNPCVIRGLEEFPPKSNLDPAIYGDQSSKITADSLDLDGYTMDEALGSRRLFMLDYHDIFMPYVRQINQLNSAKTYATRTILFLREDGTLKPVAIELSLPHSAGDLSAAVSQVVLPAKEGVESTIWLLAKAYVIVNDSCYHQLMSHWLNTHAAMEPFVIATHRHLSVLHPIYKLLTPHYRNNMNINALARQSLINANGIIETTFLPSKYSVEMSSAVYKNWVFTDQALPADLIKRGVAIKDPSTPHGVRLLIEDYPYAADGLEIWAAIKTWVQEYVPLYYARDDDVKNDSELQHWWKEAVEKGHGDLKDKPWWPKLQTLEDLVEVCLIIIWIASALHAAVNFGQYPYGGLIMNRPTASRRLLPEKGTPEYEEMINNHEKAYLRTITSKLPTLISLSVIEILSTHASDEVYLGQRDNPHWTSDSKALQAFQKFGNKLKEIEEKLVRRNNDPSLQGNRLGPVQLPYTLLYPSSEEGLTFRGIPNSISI
# Experimental: In order to gain insights on the nature of the produced metabolites, LC-MS/MS analysis of the reaction products were carried out. To this end, the respective DHA variants (0.1 mM) were incubated in a 2 mL eppendorf tube with 10 µL 15-sLOX (4 mg/mL) in sodium borate buffer (50 mM, pH 9) for 30 min at room temperature and the reaction quenched by the addition of cold MeOH (760 µL). The hydroperoxides were reduced with the addition of aq. SnCl2 (50 µL, 5 mg/mL) and subsequently the mixture was centrifuged (16,100 ×g for 5 min). Water (2 mL) was added to the supernatant, followed by the dropwise addition of glacial acetic acid (40 µL). The products were purified by SPE using SepPak 200 mg C18 cartridges (3CC), according to published protocols. The methyl formate eluates were evaporated to dryness, dissolved in MeOH (0.5 mL) and stored at −80 °C until analysis. The resulting solution was diluted 1000 times with MeOH for LC-MS/MS measurements. To 120 µL water, 72 µL of MeOH, 4 µL of the diluted solution and 4 µL of an internal standard (15-HETE-d8, Leukotriene LTB4-d4 and DHA-d5) was added. The samples were loaded in a SIL-30AC autosampler and the analytes separated on a Kinetex 1.7 µm C18 100Å, 50 × 2.1 mm LC column as described. The detection of DHA metabolites was performed in selected ion monitoring mode using several traces in order to take the eventual loss of a deuterium atom into account. The following traces were used: m/z 327.2, 343.2, 359.2 and 375.2 for DHA and its metabolites, m/z 327.2, 328.2, 329.2, 344.2, 345.2, 360.2, 361.2, 376.2, 377.2 for D2-DHA, m/z 331.2, 345.3, 346.2, 361.2, 362.3, 363.2, 377.2, 378.2 and 379.2 for D4-DHA and m/z 337.2, 352.2, 353.2, 367.2, 368.2, 369.2, 383.2, 384.2 and 385.2 for D10-DHA. Tandem mass spectra were recorded as product ion scans. Quantification of the metabolites was done by calculating the area ratio between the analyte and the internal standard (DHA-d5 for non-hydroxylated, 15-HETE-d8 for mono-hydroxylated and LTB4-d4 for di-hydroxylated derivatives) using Multiquant version 3.0.2.
# [2] = target: T1, 15-sLOX; assay: Kinetics parameters of 15s-LOX (UV 270 nm, Michaelis-Menten); type: biochemical, Glycine max (soybean); conditions: monitored at 270 nm
# Experimental: The activity of 15-sLOX was monitored on a Beckman Coulter DU730 Life Sciences UV-visible spectrometer at a wavelength of 270 nm monitoring the conjugated triene structure in the dihydroxylation products. For the measurements a reaction mixture of DHA or deuterated DHA (0.02 mM; 0.04 mM; 0.1 mM and 0.2 mM) was prepared in 750 µL sodium borate buffer (50 mM, pH 9) by ultrasonification for 10 s. The reaction was subsequently initiated by the addition of 10 µL 15-sLOX (4 mg/mL) to make a total volume of 760 µL in a Hellma CEL2056 quartz cuvette with 1 cm path length (20 °C). The initial reaction rates (V(0)), derived from the recorded UV-absorbance using the law of Lambert-Beer (molar extinction coefficient = 40,000), were plotted against the respective DHA concentrations and fitted to Michaelis-Menten kinetics in GraphPad Prism 7.0. All V(0) values were determined in triplicate and the average of three independent experiments was plotted against the substrate concentrations to yield Michaelis-Menten kinetics.
compound,measurement,setting,value
"[2H]C([2H])(C=CCC=CCC=CCC=CCC)C=CC([2H])([2H])C=CCCC(=O)O [D4-DHA, (6,6,9,9-D4)-DHA]",pre-dominant product of 15-sLOX oxidation (LC-MS),[1],"double oxygenation product 10S,17S-diHDHA"
same,15s-LOX activity for the double hydroxylation product,[2],no substantial differences
"[2H]C([2H])(/C=C\C/C=C\C/C=C\C/C=C\C/C=C\CC)/C=C\CCC(=O)O [D2-DHA, (6,6-D2)-DHA]",pre-dominant product of 15-sLOX oxidation (LC-MS),[1],"double oxygenation product 10S,17S-diHDHA"
same,15s-LOX activity for the double hydroxylation product,[2],no substantial differences
"CC/C=C\C/C=C\C/C=C\C/C=C\C/C=C\C/C=C\CCC(=O)O [Natural DHA, docosahexaenoic acid, reference compound]",pre-dominant product of 15-sLOX oxidation (LC-MS),[1],"double oxygenation product 10S,17S-diHDHA"
same,15s-LOX activity for the double hydroxylation product,[2],no substantial differences
